Experiment [1] has as its target human (hACC2) (Homo sapiens, UniProt O00763). Description: In vitro ACC inhibition assay (ADP-Glo), hACC2. Format: biochemical. The note with it: 5 nM ACC2, 20 μM ATP, 20 μM acetyl-CoA. The method, then:
The detailed procedure is as follows. […] 10 μL ADP glo reagent was added. […] 20 μL kinase detection reagent was added.

The test system of experiment [2] is C. parapsilosis. Nature of the experiment: Antifungal Activity Assay (broth microtiter MIC), C. parapsilosis. The note with it: 3 replicates, MIC recorded at 48 h; for MIC: Lodderomyces parapsilosis, ATCC22019, 48 h, ATCC 22019, read-out: MIC, C. parapsilosis ATCC 22019. Format: cell-based, Candida parapsilosis. In outline: (§1)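 Endpoint: lowest concentration visibly inhibiting growth relative to control after 48 h. Inoculum of 2.5×10^3 CFU/mL final in RPMI 1640+MOPS, prepared from overnight 35° C agar cultures; test compounds diluted in water to 128 μg/mL before plating.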

The subject of experiment [3] is C. albicans. Nature of the experiment: Antifungal Activity Assay (broth microtiter MIC), C. albicans. The note with it: 3 replicates, MIC recorded at 48 h; for MIC: Candida albicans, ATCC90028, 48 h, ATCC 90028, read-out: MIC, C. albicans ATCC 90028. It is filed as cell-based, Candida albicans. Put shortly:
as §1

Experiment [4] has as its target fungal (fACC2) (UniProt Q00955). The note with it: read-out: fACC2 (in vitro ACC2 Inhibition Assay, IC50), ADP-Glo, 5 nM ACC2, 20 μM ATP, 20 μM acetyl-CoA.
Experimental: An exemplary procedure for the in vitro ACC inhibition assay, which can be used to determine the inhibitory action of compounds of the invention toward either human (hACC2) or fungal (fACC2), follows. The ADP-Glo™ Kinase Assay kit from Promega was used. The ADP-Glo™ Kinase Assay is a luminescent ADP detection assay to measure enzymatic activity by quantifying the amount of ADP produced during an enzyme reaction. The assay is performed in two steps; first, after the enzyme reaction, an equal volume of ADP-Glo™ Reagent is added to terminate the reaction and deplete the remaining ATP. Second, the Kinase Detection Reagent is added to simultaneously convert ADP to ATP and allow the newly synthesized ATP to be measured using a luciferase/luciferin reaction. Luminescence can be correlated to ADP concentrations by using an ATP-to-ADP conversion curve. […] 50 μL of the compound being tested (600 μM in DMSO) was added to a 384-well dilution plate. The compound was diluted 1:3 in succession in DMSO for each row for 11 wells. 0.5 μL ACC2 working solution was added to 384-well white Optiplate assay plate. 0.5 μL diluted compound solution in each column from step 2 was added to assay plate, each row containing 2 replicates. […] The plates were incubated at room temperature for 15 minutes. 5 μL substrate working solution was added to each well to initiate reaction. Final ACC2 reaction concentrations consist of: 5 nM ACC2, 20 μM ATP, 20 μM acetyl-CoA, 12 mM NaHCO3, 0.01% Brij35, 2 mM DTT, 5% DMSO, test compound concentrations: 30 μM, 10 μM, 3.33 μM, 1.11 μM, 0.37 μM, 0.123 μM, 0.0411 μM, 0.0137 μM, 0.00457 μM, 0.00152 μM, and 0.00051 μM. Plates were incubated at room temperature for 60 minutes. 10 μL ADP glo reagent was added. Plates were incubated at room temperature for 40 minutes. 20 μL kinase detection reagent was added. Plates were incubated at room temperature for 40 minutes, and then read on a Perkin Elmer EnVision 2104 plate reader for luminescence as Relative Light Units (RLU).
Data for each concentration, as well as the positive and negative controls were averaged, and the standard deviation calculated. Percent inhibition was calculated by the formula: 100×(average negative control−compound)/(average negative control−average positive control). The IC50 for each compound was calculated by fitting the data with a non-linear regression equation: Y=Bottom+(Top−Bottom)/(1+10 ((Log IC50−X)*HillSlope)), where X is the log of compound concentration and Y is percent inhibition.
The subject of experiment [5] is C. krusei. Nature of the experiment: Antifungal Activity Assay (broth microtiter MIC), C. krusei. Format: cell-based, Candida krusei. The note with it: 3 replicates, MIC recorded at 48 h; for MIC: Pichia kudriavzevii, ATCC6258, 48 h, ATCC 6258, read-out: MIC, C. krusei ATCC 6258. In outline: as §1

≈ marks a conversion by molar mass, not a printed value. Like-named read-outs stand apart in the source and are kept apart here.

Sequence of fungal (fACC2) (Q00955 whole entry): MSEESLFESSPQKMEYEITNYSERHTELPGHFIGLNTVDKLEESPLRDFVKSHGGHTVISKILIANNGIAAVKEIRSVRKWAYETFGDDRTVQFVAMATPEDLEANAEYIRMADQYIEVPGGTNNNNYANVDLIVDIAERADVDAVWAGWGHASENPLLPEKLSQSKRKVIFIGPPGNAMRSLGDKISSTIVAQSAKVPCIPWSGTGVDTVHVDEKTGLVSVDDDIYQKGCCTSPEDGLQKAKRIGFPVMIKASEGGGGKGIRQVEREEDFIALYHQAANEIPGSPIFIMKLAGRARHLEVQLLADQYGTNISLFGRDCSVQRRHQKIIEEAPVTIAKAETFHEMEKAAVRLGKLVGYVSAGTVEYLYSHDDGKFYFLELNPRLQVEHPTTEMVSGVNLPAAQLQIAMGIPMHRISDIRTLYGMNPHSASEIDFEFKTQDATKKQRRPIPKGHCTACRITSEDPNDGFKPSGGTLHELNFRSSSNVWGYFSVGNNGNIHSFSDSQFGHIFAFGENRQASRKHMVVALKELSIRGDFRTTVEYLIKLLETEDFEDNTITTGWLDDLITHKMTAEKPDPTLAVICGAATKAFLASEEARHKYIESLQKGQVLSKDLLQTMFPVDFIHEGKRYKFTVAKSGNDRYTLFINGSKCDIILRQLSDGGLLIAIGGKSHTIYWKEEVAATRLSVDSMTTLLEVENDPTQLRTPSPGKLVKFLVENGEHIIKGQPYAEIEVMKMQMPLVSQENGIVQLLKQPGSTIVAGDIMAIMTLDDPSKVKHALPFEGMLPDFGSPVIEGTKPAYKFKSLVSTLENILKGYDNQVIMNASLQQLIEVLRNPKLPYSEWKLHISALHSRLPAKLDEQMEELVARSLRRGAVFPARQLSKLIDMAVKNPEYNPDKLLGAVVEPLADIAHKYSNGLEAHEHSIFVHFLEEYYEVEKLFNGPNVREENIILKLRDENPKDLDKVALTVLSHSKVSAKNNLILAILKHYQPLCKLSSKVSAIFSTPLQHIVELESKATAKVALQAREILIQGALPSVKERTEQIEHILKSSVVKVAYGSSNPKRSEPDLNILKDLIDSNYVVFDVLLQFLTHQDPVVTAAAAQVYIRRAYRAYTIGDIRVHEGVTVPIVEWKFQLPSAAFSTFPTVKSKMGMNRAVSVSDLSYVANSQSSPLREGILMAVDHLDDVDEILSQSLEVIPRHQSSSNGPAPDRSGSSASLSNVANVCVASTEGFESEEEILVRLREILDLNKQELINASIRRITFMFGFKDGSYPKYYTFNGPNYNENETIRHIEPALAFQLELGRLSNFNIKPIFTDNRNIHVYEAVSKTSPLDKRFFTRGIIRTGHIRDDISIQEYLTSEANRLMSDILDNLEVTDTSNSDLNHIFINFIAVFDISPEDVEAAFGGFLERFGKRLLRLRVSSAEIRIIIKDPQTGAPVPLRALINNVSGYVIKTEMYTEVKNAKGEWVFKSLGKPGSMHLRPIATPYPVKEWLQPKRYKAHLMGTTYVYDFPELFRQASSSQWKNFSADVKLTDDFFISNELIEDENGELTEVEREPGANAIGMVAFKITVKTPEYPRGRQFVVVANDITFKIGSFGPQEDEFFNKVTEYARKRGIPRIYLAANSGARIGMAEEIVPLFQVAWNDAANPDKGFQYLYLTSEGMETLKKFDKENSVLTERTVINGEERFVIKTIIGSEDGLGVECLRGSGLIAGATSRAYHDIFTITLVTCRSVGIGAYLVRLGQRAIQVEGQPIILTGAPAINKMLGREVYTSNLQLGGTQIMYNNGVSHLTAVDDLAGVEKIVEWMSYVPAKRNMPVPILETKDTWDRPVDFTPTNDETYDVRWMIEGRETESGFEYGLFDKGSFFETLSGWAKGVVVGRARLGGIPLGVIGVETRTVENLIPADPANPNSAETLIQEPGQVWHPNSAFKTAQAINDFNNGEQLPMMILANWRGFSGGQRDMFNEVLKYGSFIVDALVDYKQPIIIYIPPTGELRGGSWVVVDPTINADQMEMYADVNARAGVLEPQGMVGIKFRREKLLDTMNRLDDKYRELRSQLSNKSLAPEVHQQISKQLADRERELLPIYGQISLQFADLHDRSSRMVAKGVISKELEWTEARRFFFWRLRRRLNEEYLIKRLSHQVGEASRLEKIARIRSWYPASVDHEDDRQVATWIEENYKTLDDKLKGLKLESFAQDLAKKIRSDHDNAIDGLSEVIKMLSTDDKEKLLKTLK
Sequence of human (hACC2) (O00763 whole entry): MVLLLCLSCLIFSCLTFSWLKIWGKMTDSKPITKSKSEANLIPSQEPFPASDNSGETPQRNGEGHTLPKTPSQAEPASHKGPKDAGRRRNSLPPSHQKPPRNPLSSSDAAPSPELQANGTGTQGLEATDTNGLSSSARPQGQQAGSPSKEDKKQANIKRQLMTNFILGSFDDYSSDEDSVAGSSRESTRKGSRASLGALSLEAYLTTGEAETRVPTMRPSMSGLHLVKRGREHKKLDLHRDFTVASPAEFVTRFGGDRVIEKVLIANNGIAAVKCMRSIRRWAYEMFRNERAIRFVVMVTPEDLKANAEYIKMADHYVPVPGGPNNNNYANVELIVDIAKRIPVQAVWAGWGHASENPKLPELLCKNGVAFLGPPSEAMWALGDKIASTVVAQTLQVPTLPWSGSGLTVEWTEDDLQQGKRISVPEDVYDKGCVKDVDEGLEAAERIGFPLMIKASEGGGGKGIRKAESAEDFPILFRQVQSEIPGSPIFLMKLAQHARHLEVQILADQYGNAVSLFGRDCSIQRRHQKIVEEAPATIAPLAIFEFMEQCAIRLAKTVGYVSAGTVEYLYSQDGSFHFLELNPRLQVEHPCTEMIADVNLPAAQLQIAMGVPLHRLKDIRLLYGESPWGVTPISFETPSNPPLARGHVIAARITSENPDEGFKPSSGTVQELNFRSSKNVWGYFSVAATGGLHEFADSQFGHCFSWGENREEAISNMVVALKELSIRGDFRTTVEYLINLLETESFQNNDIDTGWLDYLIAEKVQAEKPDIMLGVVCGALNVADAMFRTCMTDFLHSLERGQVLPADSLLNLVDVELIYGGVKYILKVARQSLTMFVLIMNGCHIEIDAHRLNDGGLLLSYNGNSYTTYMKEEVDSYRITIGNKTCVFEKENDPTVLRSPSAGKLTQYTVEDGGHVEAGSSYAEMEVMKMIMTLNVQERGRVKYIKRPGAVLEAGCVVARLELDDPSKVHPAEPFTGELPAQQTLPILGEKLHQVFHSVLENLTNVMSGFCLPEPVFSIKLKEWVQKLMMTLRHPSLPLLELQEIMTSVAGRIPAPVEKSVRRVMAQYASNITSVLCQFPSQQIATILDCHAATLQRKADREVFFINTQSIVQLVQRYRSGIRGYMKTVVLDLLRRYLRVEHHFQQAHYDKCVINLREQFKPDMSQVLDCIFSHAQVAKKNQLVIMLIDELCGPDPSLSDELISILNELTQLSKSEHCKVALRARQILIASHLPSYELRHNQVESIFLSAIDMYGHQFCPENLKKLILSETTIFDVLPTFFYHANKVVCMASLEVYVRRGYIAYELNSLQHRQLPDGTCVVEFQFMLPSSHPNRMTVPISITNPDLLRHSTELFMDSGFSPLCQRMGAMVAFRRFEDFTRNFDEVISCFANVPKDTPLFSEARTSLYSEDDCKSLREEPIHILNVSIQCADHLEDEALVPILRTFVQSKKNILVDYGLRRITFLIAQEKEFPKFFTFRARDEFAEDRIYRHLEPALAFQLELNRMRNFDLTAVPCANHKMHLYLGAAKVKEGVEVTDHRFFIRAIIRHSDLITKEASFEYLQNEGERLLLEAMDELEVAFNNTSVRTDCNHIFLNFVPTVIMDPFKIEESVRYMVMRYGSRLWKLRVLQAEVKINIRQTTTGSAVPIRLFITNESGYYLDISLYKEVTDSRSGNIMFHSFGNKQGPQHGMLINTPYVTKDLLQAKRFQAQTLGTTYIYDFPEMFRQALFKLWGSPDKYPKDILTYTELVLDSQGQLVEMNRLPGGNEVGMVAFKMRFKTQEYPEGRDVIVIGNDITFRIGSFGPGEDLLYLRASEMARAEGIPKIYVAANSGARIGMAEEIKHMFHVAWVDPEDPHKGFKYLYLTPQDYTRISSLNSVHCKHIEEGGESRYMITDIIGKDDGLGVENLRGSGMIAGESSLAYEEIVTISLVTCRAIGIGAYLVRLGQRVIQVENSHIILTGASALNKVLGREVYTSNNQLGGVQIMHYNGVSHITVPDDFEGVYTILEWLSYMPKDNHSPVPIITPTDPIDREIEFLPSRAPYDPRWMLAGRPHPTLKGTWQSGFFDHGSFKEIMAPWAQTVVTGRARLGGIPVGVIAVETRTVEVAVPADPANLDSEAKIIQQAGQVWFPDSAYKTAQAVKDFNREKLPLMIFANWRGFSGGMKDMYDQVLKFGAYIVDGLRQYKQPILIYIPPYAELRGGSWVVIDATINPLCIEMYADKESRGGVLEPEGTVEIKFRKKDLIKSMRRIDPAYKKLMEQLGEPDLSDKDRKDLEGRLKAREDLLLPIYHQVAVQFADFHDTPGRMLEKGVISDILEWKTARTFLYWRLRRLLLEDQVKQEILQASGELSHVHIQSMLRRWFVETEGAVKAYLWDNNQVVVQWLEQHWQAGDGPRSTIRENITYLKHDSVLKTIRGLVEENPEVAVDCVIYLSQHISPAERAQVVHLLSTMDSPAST

Consider `COCCCO[C@@H](Cn1c(=O)n(C(C)C(=O)NC(C)C)c(=O)c2c(C)c(-n3nccn3)sc21)c1cc(F)ccc1OC` (stereo partly drawn) [Compound I-130], for which the IC50 lay in the range of 10 to 40 nM in experiment [1] (Table 2a); 10 to 40 nM in experiment [1] (Table 2b, additional results); 0.4 to 1 nM in experiment [4] (Table 2a); 0.3 to 1 nM in experiment [4] (Table 2b, additional results). Moreover, the MIC lay in the range of 1.1 to 2 µg/mL (≈ 1.83 to 3.32 µM) in experiment [2] (Table 3a); 1.01 to 2 µg/mL (≈ 1.68 to 3.32 µM) in experiment [2] (Table 3b (additional results)); 1.1 to 2 µg/mL (≈ 1.83 to 3.32 µM) in experiment [3] (Table 3a); 2.01 to 4 µg/mL (≈ 3.34 to 6.64 µM) in experiment [3] (Table 3b (additional results)); 2.1 to 4 µg/mL (≈ 3.48 to 6.64 µM) in experiment [5] (Table 3a); 1.01 to 2 µg/mL (≈ 1.68 to 3.32 µM) in experiment [5] (Table 3b (additional results)).

Turning to `COc1ccc(F)cc1[C@H](Cn1c(=O)n(C(C)C(=O)NC(C)C)c(=O)c2c(C)c(-n3nccn3)sc21)OCCO` (stereo partly drawn) [Compound I-131], the IC50 lay in the range of 5 to 10 nM in experiment [1] (Table 2a); 5 to 10 nM in experiment [1] (Table 2b, additional results); 0.4 to 1 nM in experiment [4] (Table 2a); 0.3 to 1 nM in experiment [4] (Table 2b, additional results). Besides, the MIC lay within 1.1 to 2 µg/mL (≈ 1.91 to 3.48 µM) in experiment [2] (Table 3a); 1.01 to 2 µg/mL (≈ 1.76 to 3.48 µM) in experiment [2] (Table 3b (additional results)); 1.1 to 2 µg/mL (≈ 1.91 to 3.48 µM) in experiment [3] (Table 3a); 2.01 to 4 µg/mL (≈ 3.5 to 6.96 µM) in experiment [3] (Table 3b (additional results)); 0.25 to 1 µg/mL (≈ 0.435 to 1.74 µM) in experiment [5] (Table 3a); 1.01 to 2 µg/mL (≈ 1.76 to 3.48 µM) in experiment [5] (Table 3b (additional results)).

For the compound `COCCO[C@@H](Cn1c(=O)n(C(C)(C)C(=O)NC(C)C)c(=O)c2c(C)c(-n3nccn3)sc21)c1ccccc1OC` [Compound I-133], the IC50 in experiment [1] (Table 2a) fell in the range of 5 to 10 nM; in experiment [1] (Table 2b, additional results), 5 to 10 nM; in experiment [4] (Table 2a), 1 to 5 nM; in experiment [4] (Table 2b, additional results), 1 to 5 nM. Further, the MIC in experiment [2] (Table 3a) lay within 2.1 to 4 µg/mL (≈ 3.59 to 6.84 µM); in experiment [2] (Table 3b (additional results)), 0.25 to 1 µg/mL (≈ 0.428 to 1.71 µM); in experiment [3] (Table 3a), 1.1 to 2 µg/mL (≈ 1.88 to 3.42 µM); in experiment [3] (Table 3b (additional results)) it was 1.01 to 2 µg/mL (≈ 1.73 to 3.42 µM); in experiment [5] (Table 3a) it was 1.1 to 2 µg/mL (≈ 1.88 to 3.42 µM); in experiment [5] (Table 3b (additional results)), 0.25 to 1 µg/mL (≈ 0.428 to 1.71 µM).

As to `COCCO[C@@H](Cn1c(=O)n(C(C)(C)C(=O)NC2CCC2)c(=O)c2c(C)c(-n3nccn3)sc21)c1cc(F)ccc1OC` [Compound I-134], the IC50 was in the range of 5 to 10 nM in experiment [1] (Table 2a); 5 to 10 nM in experiment [1] (Table 2b, additional results); 1 to 5 nM in experiment [4] (Table 2a); 1 to 5 nM in experiment [4] (Table 2b, additional results). The “MIC, C. parapsilosis ATCC 22019” value in experiment [2] (Table 3a) is “B (MIC of 1.1-2.0 μg/mL)”; in experiment [2] (Table 3b (additional results)), “A (MIC of 0.25-1.0 μg/mL)”. In addition, the “MIC, C. albicans ATCC 90028” value in experiment [3] (Table 3a) was “B (MIC of 1.1-2.0 μg/mL)”; in experiment [3] (Table 3b (additional results)) it was “D (MIC of >4.01 μg/mL)”. Further, the entries for the “MIC, C. krusei ATCC 6258” value in experiment [5] (Table 3a) and in experiment [5] (Table 3b (additional results)) were “B (MIC of 1.1-2.0 μg/mL)” and “B (MIC of 1.01-2.0 μg/mL)”, respectively.

For `COc1ccc(F)cc1[C@H](Cn1c(=O)n(C(C)(C)C(=O)NC(C)C)c(=O)c2c(C)c(-n3nccn3)sc21)OCCC(=O)O` [Compound I-135, 3-[(1R)-1-(5-fluoro-2-methoxyphenyl)-2-(5-methyl-3-[1-methyl-1-[(propan-2-yl)carbamoyl]ethyl]-2,4-dioxo-6-(2H-1,2,3-triazol-2-yl)-1H,2H,3H,4H-thieno[2,3-d]pyrimidin-1-yl)ethoxy]propanoic acid], the IC50 in experiment [1] (Table 2a) lay in the range of 10 to 40 nM; in experiment [1] (Table 2b, additional results) it was 10 to 40 nM; in experiment [4] (Table 2a), 1 to 5 nM; in experiment [4] (Table 2b, additional results) it was 0.3 to 1 nM. The MIC lay in the range of 2.1 to 4 µg/mL (≈ 3.41 to 6.49 µM) in experiment [2] (Table 3a); 0.25 to 1 µg/mL (≈ 0.405 to 1.62 µM) in experiment [2] (Table 3b (additional results)); 0.25 to 1 µg/mL (≈ 0.405 to 1.62 µM) in experiment [3] (Table 3a); 0.25 to 1 µg/mL (≈ 0.405 to 1.62 µM) in experiment [3] (Table 3b (additional results)); 2.1 to 4 µg/mL (≈ 3.41 to 6.49 µM) in experiment [5] (Table 3a); 0.25 to 1 µg/mL (≈ 0.405 to 1.62 µM) in experiment [5] (Table 3b (additional results)).

With `COc1ccccc1[C@H](Cn1c(=O)n(C(C)(C)C(N)=O)c(=O)c2c(C)c(-n3nccn3)sc21)OCCC#N` [Compound I-137, 2-[1-[(2R)-2-(2-cyanoethoxy)-2-(2-methoxyphenyl)ethyl]-5-methyl-2,4-dioxo-6-(2H-1,2,3-triazol-2-yl)-1H,2H,3H,4H-thieno[2,3-d]pyrimidin-3-yl]-2-methylpropanamide], the 50% inhibitory concentration (IC50) was in the range of 1 to 5 nM in experiment [1] (Table 2a); 1 to 5 nM in experiment [1] (Table 2b, additional results); 1 to 5 nM in experiment [4] (Table 2a); 1 to 5 nM in experiment [4] (Table 2b, additional results). For the same compound, the MIC was 2.1 to 4 µg/mL (≈ 3.91 to 7.44 µM) in experiment [2] (Table 3a); 2.01 to 4 µg/mL (≈ 3.74 to 7.44 µM) in experiment [2] (Table 3b (additional results)); 2.1 to 4 µg/mL (≈ 3.91 to 7.44 µM) in experiment [3] (Table 3a); 2.01 to 4 µg/mL (≈ 3.74 to 7.44 µM) in experiment [3] (Table 3b (additional results)); 2.1 to 4 µg/mL (≈ 3.91 to 7.44 µM) in experiment [5] (Table 3a); 2.01 to 4 µg/mL (≈ 3.74 to 7.44 µM) in experiment [5] (Table 3b (additional results)).

For the compound `COc1ccc(F)cc1[C@H](Cn1c(=O)n(C(C)(C)C(=O)O)c(=O)c2c(C)c(-n3nccn3)sc21)OCCN1CC(C#N)C1` [Compound I-145], the half-inhibitory concentration (IC50) fell in the range of 10 to 40 nM in experiment [1] (Table 2b, additional results); 1 to 5 nM in experiment [4] (Table 2a); 1 to 5 nM in experiment [4] (Table 2b, additional results). Also, the MIC in experiment [2] (Table 3a) is 2.1 to 4 µg/mL (≈ 3.43 to 6.54 µM); in experiment [2] (Table 3b (additional results)), > 4.01 µg/mL; in experiment [3] (Table 3a) it was 2.1 to 4 µg/mL (≈ 3.43 to 6.54 µM); in experiment [3] (Table 3b (additional results)), > 4.01 µg/mL; in experiment [5] (Table 3a) it was 2.1 to 4 µg/mL (≈ 3.43 to 6.54 µM); in experiment [5] (Table 3b (additional results)) it was > 4.01 µg/mL.

The values above are taken from US10800791B2, “Triazole ACC inhibitors and uses thereof” (Gilead Apollo, LLC, priority 2015, dated 2020).
